Like-named read-outs stand apart in the source and are kept apart here.
Columns and labels:
human serum albumin = test system: human serum albumin; design: method as in ref 45 (a number printed in a supplementary file, which may have a reference list of its own: not looked up in the article's list); details: cited from earlier work
[1] = rat brain tissue; cited from earlier work
[2] = cited from earlier work
[3] = design: method as in ref 23, 24, 27, 29, 45 (a number printed in a supplementary file, which may have a reference list of its own: not looked up in the article's list); details: 100% aqueous mobile phase, previously obtained in authors' laboratory, cited from earlier work
[4] = cited from earlier work; remark: listed apart in the source
[5] = most values in rats, average if more than one value; cited from earlier work
α1 acid glycoprotein = test system: α1 acid glycoprotein; design: method as in ref 23, 24, 27, 29, 45 (a number printed in a supplementary file, which may have a reference list of its own: not looked up in the article's list); details: pH=7.4, 100% aqueous mobile phase; previously obtained in authors' laboratory; cited from earlier work
[6] = brain slice method; cited from earlier work
[7] = Unbound fraction in brain (fu,brain), brain homogenate method; details: Kb from literature fu,brain
Text: However, Kp,uu,brain can be derived from Kp,brain by combining the unbound fraction of the drug in the plasma (fu,p) and in the brain (fu,brain) or the unbound brain volume of distribution, Vu,brain [7]. […] The relevant equations are included in Section 3. Evidently, fu,p is obtained by standard methods for plasma protein binding.
Experimentally determined Kp,brain values for 42 compounds were obtained from the literature and were converted to logBB. They preferably referred to rat studies in order to achieve homogeneity in the data. Experimental fu,brain values were available from the literature for 39 compounds in the dataset. When more than one value was available, the average was calculated. Most values were determined on rats.
The decimal logarithm of Kb, logKb, was used for the development of the models.

[8] = pH=7.4, isocratic, 10% acetonitrile, available for 37 compounds, remaining calculated by equation
[9] = octanol-water partition coefficient, experimental
[10] = pH=5.0, octanol-water, experimental
[11] = pH=7.4, octanol-water, experimental
[12] = literature Kp,brain converted to logBB
[13] = total brain/total plasma, preferably rat studies

| Structure (SMILES) | logk10,HSA (human serum albumin; [8]) | Kp,uu,brain [1] | Kp,brain ([2]; rat, in vivo) | logBB exper. ([2]; rat, in vivo) | logkw IAM ([3]; pH=7.4, PBS) | logP [4, 9] | logD [4, 10] | logD [4, 11] | fu,brain [5] | logkwAGP (α1 acid glycoprotein) | logBB exper. [2, 12] | Kp,brain [2, 13] | Vu,brain [6] | logkw IAM ([3]; pH=5.0, PBS) | logk10,HSA (human serum albumin) | logKb exper. [7] | logP [4] |
| --- | --- | --- | --- | --- | --- | --- | --- | --- | --- | --- | --- | --- | --- | --- | --- | --- | --- |
| COC(=O)[C@H]1[C@@H](OC(=O)c2ccccc2)C[C@@H]2CC[C@H]1N2C [Cocaine] | 0.33 | 0.37 | 3.98 | 0.6 | 1.90 | 3.01 | -0.96 | 1.07 |  |  |  |  |  |  |  |  |  |
| CN(C)CCC=C1c2ccccc2CCc2ccccc21 [Amitriptyline] | 0.89 |  |  |  | 2.99 |  | 1.13 | 2.50 | 0.010 | 2.40 | 0.98 | 9.55 | 310.00 mL/g brain | 2.06 |  |  |  |
| Cn1c(=O)c2c(ncn2C)n(C)c1=O [Caffeine] |  | 0.77 |  |  | 0.26 |  |  |  |  |  |  |  |  |  |  |  |  |
| CC1COc2c(N3CCN(C)CC3)c(F)cc3c(=O)c(C(=O)O)cn1c23 (stereo not drawn) [Ofloxacin] |  | 0.12 |  |  | 1.30 |  | -1.31 |  |  |  |  |  |  | 1.35 | -0.65 |  |  |
| Cc1ncc2n1-c1ccc(Cl)cc1C(c1ccccc1F)=NC2 [Midazolam] | 0.99 | 2.19 |  |  | 2.77 |  | 1.95 | 3.27 | 0.026 |  | 0.36 | 2.29 | 29.00 mL/g brain | 1.93 |  |  |  |
| CNC(=C[N+](=O)[O-])NCCSCc1ccc(CN(C)C)o1 [Ranitidine] | -0.41 |  |  |  | 0.61 |  | -3.37 | -0.53 |  |  | -1.23 | 0.06 |  |  |  | 1.317 | 1.28 |
| O=C1NC(=O)C(c2ccccc2)(c2ccccc2)N1 [Phenytoin] | 0.44 | 0.45 |  |  | 1.75 | 2.24 | 1.95 | 2.17 | 0.121 | 1.60 | -0.04 | 0.91 |  | 1.94 |  |  |  |
| CC(C)NCC(O)COc1cccc2ccccc12 (stereo not drawn) [Propranolol] | 0.48 |  |  |  | 2.33 |  |  |  | 0.025 | 2.20 | 0.64 | 4.37 | 112.00 mL/g brain | 1.63 |  |  |  |
| O=C(O)c1ccccc1O [Salicylic acid] |  |  |  |  | -0.08 |  |  |  | 0.630 |  |  |  | 1.00 mL/g brain | 0.46 |  | 0.230 |  |
| Cc1cc(=O)n(-c2ccccc2)n1C [Antipyrine] |  | 0.71 |  |  | 0.45 |  |  |  | 0.862 | 0.88 |  | 0.80 |  |  | -1.04 |  |  |
| CN(C)C(=N)N=C(N)N [Metformin] |  |  |  |  | -0.37 |  |  |  |  |  |  |  | 10.00 mL/g brain |  |  | 1.270 |  |
| CSc1ccc2c(c1)N(CCC1CCCCN1C)c1ccccc1S2 (stereo not drawn) [Thioridazine] | 1.59 |  |  |  |  | 5.90 | 3.06 | 3.34 | 0.001 |  | 0.24 | 1.74 | 3333.00 mL/g brain |  |  |  |  |
| C=C[C@H]1C[N@@]2CC[C@H]1C[C@@H]2[C@@H](O)c1ccnc2ccc(OC)cc12 [Quinidine] |  | 0.03 |  |  | 2.34 |  |  |  |  | 1.71 |  |  |  |  | 0.29 |  |  |
| C=CCOc1ccccc1OCC(O)CNC(C)C (stereo not drawn) [Oxprenolol] | -0.25 |  |  |  | 1.47 |  | -0.61 | 0.32 | 0.280 |  | 0.025 | 1.06 | 11.80 mL/g brain | 0.87 |  |  |  |
| COc1ccc2c(c1)c(CC(=O)O)c(C)n2C(=O)c1ccc(Cl)cc1 [Indomethacin] |  |  |  |  | 2.41 |  | 2.95 |  | 0.042 | 1.59 | -1.26 | 0.05 | 14.00 mL/g brain | 2.93 | 1.76 |  |  |
| CCn1cc(C(=O)O)c(=O)c2cc(F)c(N3CCNCC3)cc21 [Norfloxacin] | -0.92 | 0.05 |  |  |  | -1.03 | -1.17 | -1.03 | 0.580 |  | -1.15 | 0.07 | 2.90 mL/g brain |  |  | 0.139 |  |
| Cc1nc2n(c(=O)c1CCN1CCC(c3noc4cc(F)ccc34)CC1)CCCC2 [Risperidone] | 0.13 | 0.08 |  |  | 2.49 |  |  |  |  |  |  |  |  |  |  |  |  |
| CC(C)Cc1ccc(C(C)C(=O)O)cc1 (stereo not drawn) [Ibuprofen] |  | 0.56 |  |  | 0.87 |  | 2.15 |  |  |  |  |  |  | 1.55 |  |  |  |
| CCCC(C)(COC(N)=O)COC(N)=O [Meprobamate] | -0.36 |  |  |  | 0.72 | 0.70 | 1.07 | 0.70 | 0.638 |  |  |  |  | 0.54 |  | 0.245 |  |
| CC(=O)Nc1ccc(O)cc1 [Acetaminophen] | -0.56 | 0.18 |  |  | 0.18 |  |  |  |  | 0.10 | -0.31 | 0.49 |  | -0.06 |  | 0.692 |  |
| CN(C)C(=O)Oc1cccc([N+](C)(C)C)c1 [Neostigmine] | -1.91 |  |  |  | 0.37 | -2.16 | -2.16 | -2.16 | 0.950 |  |  |  | 3.20 mL/g brain | -0.08 |  | 1.270 |  |
| CNCCC=C1c2ccccc2CCc2ccccc21 [Nortriptyline] | 0.82 |  |  |  | 2.83 | 4.04 | 1.16 | 1.70 | 0.006 | 2.30 |  |  |  | 2.12 |  |  |  |

From paper PMC9227077, “Prediction Models for Brain Distribution of Drugs Based on Biomimetic Chromatographic Data” (Molecules, 2022)
